Reference: patent US8624027B2, “Combination therapy for treating cancer and diagnostic assays for use therein” (AbbVie Inc., priority 2005, dated 2014)
Where two headings read alike, the source gives them in different places.

Tests used:
Bcl-XL protein = Bcl-XL protein (Homo sapiens, UniProt Q07817); test: Bcl-XL binding affinity, fluorescence polarization with fluorescein-labeled BAD peptide; conditions: Wang's equation, read-out: Target Binding Affinity Ki (Bcl-XL)
Method: A mixture comprising 125 μL per well of assay buffer (20 mM phosphate buffer (pH 7.4), 1 mM EDTA, 50 mM NaCl, 0.05% PF-68), 6 nM of Bcl-XL protein (prepared as described in Science 1997, 275, 983-986), 1 nM fluorescein-labeled BAD peptide (prepared in-house) and the DMSO solution of the compound was shaken for 2 minutes and placed in a LJL Analyst (LJL Bio Systems, CA). A negative control (DMSO, 15 nM BAD peptide, assay buffer) and a positive control (DMSO, 1 nM BAD peptide, 6 nM Bcl-XL, assay buffer) were used to determine the range of the assay. Polarization was measured at room temperature using a continuous Fluorescein lamp (excitation 485 nm, emission 530 nm). Percentage of inhibition was determined by (1-((mP value of well-negative control)/range))×100%.

[1] = Pharmacokinetic evaluation in rat; assay type: in vivo; conditions: male, Sprague-Dawley, plasma; for AUC / Cmax: 5 mg/kg, oral; for AUC: Table 3, read-out: Pharmacokinetic area under the plasma concentration Curve (rat) AUC; for Cmax: Table 3, read-out: Pharmacokinetic peak plasma concentration (rat) Cmax; for AUC(0-inf): single 5 mg/kg oral dose, Table 1, read-out: Pharmacokinetic area under the plasma concentration Curve (rat) AUC0-∞
Method: The pharmacokinetic behavior of compounds of this disclosure was determined following a single 2 mg/kg intravenous or 5 mg/kg oral dose in male Sprague-Dawley derived rats (n=3 per group). The compounds were prepared as 2 mg/mL solution in a 10% DMSO in PEG-400 formulation for both oral and intravenous administration. The 1 mL/kg intravenous dose was administered as a slow bolus (about 1-2 minutes) in the jugular vein of a rat under light ether anesthetic. The oral dose was administered by gavage. Serial blood samples were obtained from a tail vein of each rat prior 0.1 (IV only), 0.25, 0.5, 1, 1.5, 2, 3, 4, 6, 8 and 24 hours after dosing. The heparinized samples were thoroughly mixed and placed in an ice bath. Plasma was separated by centrifugation and stored frozen prior to analysis.
The compounds of interest were separated from the plasma using protein precipitation with acetonitrile. A plasma (100-200 μL, sample or spiked standard) aliquot was combined with 50 μL of internal standard (structurally related analog prepared in acetonitrile) and 1 ml acetonitrile in a 96-well polypropylene deep well plate. The plates were vortexed for 30 seconds followed by centrifugation (3500 rpm×15 minutes, 4° C.). In an automated manner, the supernatant was transferred to a clean 96-well plate. The samples were evaporated to near dryness on a Micro-Vap™ under a stream of dry nitrogen over low heat (˜37° C.). The samples were reconstituted vortexing with 0.2 mL 5% DMSO in acetonitrile. A 0.1-0.2 ml aliquot of acetonitrile: 0.1% trifluoroacetic acid (20:80, by volume) was added to each well, followed by an additional 30 second vortexing. The plates were centrifuged (3500 rpm×15 minutes, 4° C.) prior to HPLC-MS/MS analysis. Samples were analyzed simultaneously with spiked plasma standards. All samples from each study were analyzed as a single batch on the LC-MS/MS.
The compounds of interest and the internal standard were separated from each other and co-extracted contaminants on a 50×3 mm Keystone Betasil CN 5 μm column with an acetonitrile: 0.1% trifluoroacetic acid mobile phase (50:50, by volume) at a flow rate of 0.7 ml/min. Analysis was performed on a Sciex API 300™ Biomolecular Mass Analyzer using a heated nebulizer interface. Peak areas of the title compounds and internal standards were determined using the Sciex MacQuan™ software. Calibration curves were derived from peak area ratio (parent drug/internal standard) of the spiked rat plasma standards using least squares linear regression of the ratio versus the theoretical concentration. The methods were generally linear over the range of the standard curve (correlation coefficients >0.99) with an estimated quantitation limit of 0.01 μg/mL. The plasma concentration data for each animal were submitted to multi-exponential curve fitting using WinNonlin. The area under the plasma concentration-time curve from 0 to t hours (time of the last measurable plasma concentration) after dosing (AUC0-t) was calculated using the linear trapezoidal rule for the plasma concentration-time profiles. The residual area extrapolated to infinity, determined as the final measured plasma concentration (Ct) divided by the terminal elimination rate constant (β), was added to AUC0-t to produce the total area under the curve (AUC0-∞). Ki values shown in the tables below were determined using Wang's equation (Wang Z X., An Exact Mathematical Expression For Describing Competitive Binding Of Two Different Ligands To A Protein Molecule. FEBS Lett. 1995; 360:111-4)).

Bcl-2 protein = target: T1, Bcl-2 protein (Homo sapiens, UniProt P10415, DELINS35-91DVEENRTEAPEGTESE, form not given); test: Bcl-2 binding affinity, fluorescence polarization with fluorescein-labeled BAX peptide; conditions: Wang's equation, read-out: Target Binding Affinity Ki (Bcl-2)
T1 construct: fused on or other part: A short piece of the Bcl-xL (Q07817) loop replaces Bcl-2 loop residues 35-91; The C-terminal membrane anchor is absent
T1 sequence (P10415 with tags, fused parts or gaps with the stated changes): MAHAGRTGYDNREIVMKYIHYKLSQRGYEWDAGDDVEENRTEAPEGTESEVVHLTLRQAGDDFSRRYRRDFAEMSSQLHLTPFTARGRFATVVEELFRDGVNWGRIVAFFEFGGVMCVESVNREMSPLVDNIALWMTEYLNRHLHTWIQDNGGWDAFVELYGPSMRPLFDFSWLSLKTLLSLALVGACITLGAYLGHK

[2] = system: NCI-H146 human small cell lung carcinoma cells; test: Cellular efficacy in human tumor cell line (MTS viability assay); assay type: cell-based; conditions: NCI-H146, 10% human serum, 48 hours
Method: NCI-H146 (ATCC, Manassas, Va.) human small cell lung carcinoma cells were plated 50,000 cells per well in 96-well tissue culture plates in a total volume of 100 μL tissue culture medium supplemented with 10% human serum (Invitrogen, Carlsbad, Calif.) instead of fetal bovine serum and treated with a 2-fold serial dilution of the compounds of interest from 10 μM to 0.020 μM. Each concentration was tested in duplicate at least 3 separate times. The number of viable cells following 48 hours of compound treatment was determined using the CellTiter 96® AQueous non-radioactive cell proliferation MTS assay according to manufacturer's recommendations (Promega Corp., Madison, Wis.).

[3] = Table 1, read-out: NCI-H146 Cellular Efficacy EC50
[4] = Table 3, read-out: NCI-H146 Cellular Efficacy H146 EC50

Bcl-XL protein, sequence (Q07817 with tags, fused parts or gaps DEL45-84): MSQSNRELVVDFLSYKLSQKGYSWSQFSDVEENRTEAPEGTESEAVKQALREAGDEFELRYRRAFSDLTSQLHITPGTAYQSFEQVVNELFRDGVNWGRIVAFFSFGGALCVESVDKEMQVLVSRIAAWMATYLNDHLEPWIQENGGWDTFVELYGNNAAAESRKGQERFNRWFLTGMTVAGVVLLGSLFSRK

Compound | Ki (Bcl-XL protein) [nM] | AUC [1] [µM·h] | Cmax [1] [nM] | AUC(0-inf) [1] [µM·h] | Ki (Bcl-2 protein) [nM] | EC50 [2, 3] [nM] | EC50 [2, 4] [nM]
CN(C)CC[C@H](CSc1ccccc1)Nc1ccc(S(=O)(=O)NC(=O)c2ccc(N3CCN(CC4=C(c5ccc(Cl)cc5)CCCC4)CC3)cc2)cc1S(=O)(=O)C(F)(F)Cl [Example 18, 3-((chloro(difluoro)methyl)sulfonyl)-N-(4-(4-((2-(4-chlorophenyl)cyclohex-1-en-1-yl)methyl)piperazin-1-yl)benzoyl)-4-(((1R)-3-(dimethylamino)-1-((phenylsulfanyl)methyl)propyl)amino)benzenesulfonamide] | ≤ 1 | 0.609 | 59 | 0.61 | ≤ 1 | 15.4 | 15
CN(C)CC[C@H](CSc1ccccc1)Nc1ccc(S(=O)(=O)NC(=O)c2ccc(N3CCN(CC4=C(c5ccc(Cl)cc5)CCC(C)(C)C4)CC3)cc2)cc1S(=O)(=O)C(F)(F)F [Example 20, N-(4-(4-((2-(4-chlorophenyl)-5,5-dimethyl-1-cyclohex-1-en-1-yl)methyl)piperazin-1-yl)benzoyl)-4-(((1R)-3-(dimethylamino)-1-((phenylsulfanyl)methyl)propyl)amino)-3-((trifluoromethyl)sulfonyl)benzenesulfonamide] | ≤ 1 |  |  | 3.11 | ≤ 1 | 27.7 | 
CC(C)N(C)CC[C@H](CSc1ccccc1)Nc1ccc(S(=O)(=O)NC(=O)c2ccc(N3CCN(CC4=C(c5ccc(Cl)cc5)CC(C)(C)CC4)CC3)cc2)cc1S(=O)(=O)C(F)(F)Cl [Example 22, 3-((chloro(difluoro)methyl)sulfonyl)-N-(4-(4-((2-(4-chlorophenyl)-4,4-dimethylcyclohex-1-en-1-yl)methyl)piperazin-1-yl)benzoyl)-4-(((1R)-3-(isopropyl(methyl)amino)-1-((phenylsulfanyl)methyl)propyl)amino)benzenesulfonamide] | ≤ 1 |  |  | 4.08 | ≤ 1 | 38.8 | 
CC(C)N(C)CC[C@H](CSc1ccccc1)Nc1ccc(S(=O)(=O)NC(=O)c2ccc(N3CCN(CC4=C(c5ccc(Cl)cc5)CCC(C)(C)C4)CC3)cc2)cc1S(=O)(=O)C(F)(F)Cl [Example 23, 3-((chloro(difluoro)methyl)sulfonyl)-N-(4-(4-((2-(4-chlorophenyl)-5,5-dimethylcyclohex-1-en-1-yl)methyl)piperazin-1-yl)benzoyl)-4-(((1R)-3-(isopropyl(methyl)amino)-1-((phenylsulfanyl)methyl)propyl)amino)benzenesulfonamide] | ≤ 1 |  |  | 3.54 | ≤ 1 | 52.8 | 
CC1(C)CCC(CN2CCN(c3ccc(C(=O)NS(=O)(=O)c4ccc(N[C@H](CCN5C[C@@H]6C[C@H]5CO6)CSc5ccccc5)c(S(=O)(=O)C(F)(F)Cl)c4)cc3)CC2)=C(c2ccc(Cl)cc2)C1 [Example 25, 3-((chloro(difluoro)methyl)sulfonyl)-N-(4-(4-((2-(4-chlorophenyl)-4,4-dimethylcyclohex-1-en-1-yl)methyl)piperazin-1-yl)benzoyl)-4-(((1R)-3-((1S,4S)-2-oxa-5-azabicyclo[2.2.1]hept-5-yl)-1-((phenylsulfanyl)methyl)propyl)amino)benzenesulfonamide] | ≤ 1 |  |  | 1.67 | ≤ 1 | 16.4 | 
CN(C)CC[C@H](CSc1ccccc1)Nc1ccc(S(=O)(=O)NC(=O)c2ccc(N3CCN(CC4=C(c5ccc(Cl)cc5)CCCC4)CC3)cc2)cc1S(=O)(=O)C(F)(F)F [Example 26, N-(4-(4-((2-(4-chlorophenyl)cyclohex-1-en-1-yl)methyl)piperazin-1-yl)benzoyl)-4-(((1R)-3-(dimethylamino)-1-((phenylsulfanyl)methyl)propyl)amino)-3-((trifluoromethyl)sulfonyl)benzenesulfonamide] | ≤ 1 | 0.803 | 97 | 0.8 | ≤ 1 | 24.3 | 24

The remaining lines, values ahead:

Ki (Bcl-XL protein) [nM] | AUC [1] [µM·h] | Cmax [1] [nM] | AUC(0-inf) [1] [µM·h] | Ki (Bcl-2 protein) [nM] | EC50 [2, 3] [nM] | EC50 [2, 4] [nM] | Compound
≤ 1 |  |  | 7.12 | ≤ 1 | 15.8 |  | CC1(C)CCC(c2ccc(Cl)cc2)=C(CN2CCN(c3ccc(C(=O)NS(=O)(=O)c4ccc(N[C@H](CCN5CCOCC5)CSc5ccccc5)c(S(=O)(=O)C(F)(F)Cl)c4)cc3)CC2)C1 [Example 19, 3-((chloro(difluoro)methyl)sulfonyl)-N-(4-(4-((2-(4-chlorophenyl)-5,5-dimethylcyclohex-1-en-1-yl)methyl)piperazin-1-yl)benzoyl)-4-(((1R)-3-(morpholin-4-yl)-1-((phenylsulfanyl)methyl)propyl)amino)benzenesulfonamide]
≤ 1 |  |  | 1.81 | ≤ 1 | 64.3 |  | O=C(NS(=O)(=O)c1ccc(N[C@H](CCN2CCOCC2)CSc2ccccc2)c(S(=O)(=O)C(F)(F)F)c1)c1ccc(N2CCN(CC3=C(c4ccc(Cl)cc4)CCOC3)CC2)cc1 [Example 21, N-(4-(4-((4-(4-chlorophenyl)-5,6-dihydro-2H-pyran-3-yl)methyl)piperazin-1-yl)benzoyl)-4-(((1R)-3-(morpholin-4-yl)-1-((phenylsulfanyl)methyl)propyl)amino)-3-((trifluoromethyl)sulfonyl)benzenesulfonamide]
≤ 1 |  |  | 8.04 | ≤ 1 | 44.3 |  | CC1(C)CCC(CN2CCN(c3ccc(C(=O)NS(=O)(=O)c4ccc(N[C@H](CCN5CCOCC5)CSc5ccccc5)c(S(=O)(=O)C(F)(F)F)c4)cc3)CC2)=C(c2ccc(Cl)cc2)C1 [Example 24, N-(4-(4-((2-(4-chlorophenyl)-4,4-dimethylcyclohex-1-en-1-yl)methyl)piperazin-1-yl)benzoyl)-4-(((1R)-3-(morpholin-4-yl)-1-((phenylsulfanyl)methyl)propyl)amino)-3-((trifluoromethyl)sulfonyl)benzenesulfonamide]
≤ 1 |  |  | 2.08 | ≤ 1 | 18.5 |  | O=C(NS(=O)(=O)c1ccc(N[C@H](CCN2CCCC2)CSc2ccccc2)c(S(=O)(=O)C(F)(F)F)c1)c1ccc(N2CCN(CC3=C(c4ccc(Cl)cc4)CCCC3)CC2)cc1 [Example 27, N-(4-(4-((2-(4-chlorophenyl)cyclohex-1-en-1-yl)methyl)piperazin-1-yl)benzoyl)-4-(((1R)-1-((phenylsulfanyl)methyl)-3-(pyrrolidin-1-yl)propyl)amino)-3-((trifluoromethyl)sulfonyl)benzenesulfonamide]
